Measured values reported in US12559529B2, “NPY2 receptor agonists” (Boehringer Ingelheim International GmbH, priority 2019, dated 2026).
*1 amine or outer side, *2 acyl side, *3 side chain or, on linkers, in order; H or OH if unused. Where a SMILES comes first, the peptide text is derived from it. Side-chain parts run from the residue outwards. The star is where a group is joined. C18 diacid = O=C(O)CCCCCCCCCCCCCCCCC(=O)*; γGlu = O=C(O)[C@H](CCC(=O)[*:2])N[*:1]; Isovaleryl = CC(C)CC(=O)*; AEEA = NCCOCCOCC(=O)O

target: T1, Human Neuropeptide Y2 Receptor (Homo sapiens, UniProt P49146); experiment: Radioligand binding competition assay (RLB); conditions: Table 3; human 125I-PYY (1-36) 0.02 nM, Y2 receptor membranes; read-out: Ki
T1 construct: purchased CHEMICON HTS066M
T1 sequence (P49146 1-381): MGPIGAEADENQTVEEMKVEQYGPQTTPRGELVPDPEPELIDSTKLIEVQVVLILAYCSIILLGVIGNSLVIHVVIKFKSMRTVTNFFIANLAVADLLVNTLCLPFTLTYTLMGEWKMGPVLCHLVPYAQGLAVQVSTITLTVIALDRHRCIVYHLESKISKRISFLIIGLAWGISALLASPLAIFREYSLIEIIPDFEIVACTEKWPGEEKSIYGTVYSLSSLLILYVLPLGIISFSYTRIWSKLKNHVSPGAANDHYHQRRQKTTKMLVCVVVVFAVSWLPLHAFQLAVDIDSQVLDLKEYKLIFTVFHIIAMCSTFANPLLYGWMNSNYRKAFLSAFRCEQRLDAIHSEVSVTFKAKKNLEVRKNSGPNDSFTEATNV
Method in brief: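 Membranes from cells expressing human Y2 receptor (0.5 μg protein/well) were incubated with radioligand and serially diluted peptides in 50 mM HEPES, 5 mM MgCl2, 1 mM CaCl2, 0.2% ovalbumin, pH 7.4, for 2 h at room temperature with shaking. Bound radioactivity was collected by filtration and counted; IC50 from sigmoidal nonlinear regression.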

| SMILES | Ki |
| --- | --- |
| CC(C)CC(=O)N[C@@H](C)C(=O)N1CCC[C@H]1C(=O)N[C@@H](CCC(=O)O)C(=O)N[C@@H](CCCCNC(=O)COCCOCCNC(=O)COCCOCCNC(=O)CC[C@H](NC(=O)CCCCCCCCCCCCCCCCC(=O)O)C(=O)O)C(=O)N1CCC[C@H]1C(=O)N[C@@H](CCC(=O)O)C(=O)N[C@@H](CCC(=O)O)C(=O)N[C@@H](CC(=O)O)C(=O)N[C@@H](C)C(=O)N[C@@H](CCC(=O)O)C(=O)N1CCC[C@H]1C(=O)N[C@@H](CCC(=O)O)C(=O)N[C@@H](CCC(=O)O)C(=O)N[C@H](C(=O)N[C@@H](CCC(N)=O)C(=O)N[C@@H](CCCNC(=N)N)C(=O)N[C@@H](Cc1ccc(O)cc1)C(=O)N[C@@H](Cc1ccc(O)cc1)C(=O)N[C@H](C(=O)N[C@@H](CO)C(=O)N[C@@H](CC(C)C)C(=O)N[C@@H](CCCNC(=N)N)C(=O)N[C@@H](Cc1c[nH]cn1)C(=O)N[C@@H](Cc1ccc(O)cc1)C(=O)N[C@@H](Cc1ccc(O)cc1)C(=O)N[C@@H](CC(N)=O)C(=O)N[C@@H](Cc1c[nH]c2ccccc12)C(=O)N[C@@H](CC(C)C)C(=O)N[C@H](C(=O)N[C@@H](CCCNC(=N)N)C(=O)N[C@@H](CCC(N)=O)C(=O)N[C@@H](CCCNC(=N)N)C(=O)N[C@@H](Cc1ccc(O)cc1)C(N)=O)[C@@H](C)O)C(C)C)[C@@H](C)O [Compound 199, N{alpha-4}-(3-methylbutanoyl)-N{epsilon-7}-[2-(2-{2-[2-(2-{2-[(4S)-4-carboxy-4-(17-carboxyheptadecanamido)butanamido]ethoxy}ethoxy)acetamido]ethoxy}ethoxy)acetamido]-[4A,7K,9E,13E,17T,18Q,22V,28Y,30W,31L]hPYY (4-36)] | 5.69 nM |
| CC(C)CC(=O)N[C@@H](C)C(=O)N1CCC[C@H]1C(=O)N[C@@H](CCC(=O)O)C(=O)N[C@@H](CCCCNC(=O)COCCOCCNC(=O)COCCOCCNC(=O)CC[C@H](NC(=O)CCCCCCCCCCCCCCCCC(=O)O)C(=O)O)C(=O)N1CCC[C@H]1C(=O)N[C@@H](CCC(=O)O)C(=O)N[C@@H](CCC(=O)O)C(=O)N[C@@H](CCC(=O)O)C(=O)N[C@@H](C)C(=O)N[C@@H](CO)C(=O)N1CCC[C@H]1C(=O)N[C@@H](CCC(=O)O)C(=O)N[C@@H](CCC(=O)O)C(=O)N[C@H](C(=O)N[C@@H](CCC(N)=O)C(=O)N[C@@H](CCCNC(=N)N)C(=O)N[C@@H](Cc1ccc(O)cc1)C(=O)N[C@@H](Cc1ccc(O)cc1)C(=O)N[C@H](C(=O)N[C@@H](CO)C(=O)N[C@@H](CC(C)C)C(=O)N[C@@H](CCCNC(=N)N)C(=O)N[C@@H](Cc1c[nH]cn1)C(=O)N[C@@H](Cc1ccc(O)cc1)C(=O)N[C@@H](Cc1ccc(O)cc1)C(=O)N[C@@H](CC(N)=O)C(=O)N[C@@H](Cc1c[nH]c2ccccc12)C(=O)N[C@@H](CC(C)C)C(=O)N[C@H](C(=O)N[C@@H](CCCNC(=N)N)C(=O)N[C@@H](CCC(N)=O)C(=O)N[C@@H](CCCNC(=N)N)C(=O)N[C@@H](Cc1ccc(O)cc1)C(N)=O)[C@@H](C)O)C(C)C)C(C)C [Compound 204, N{alpha-4}-(3-methylbutanoyl)-N{epsilon-7}-[2-(2-{2-[2-(2-{2-[(4S)-4-carboxy-4-(17-carboxyheptadecanamido)butanamido]ethoxy}ethoxy)acetamido]ethoxy}ethoxy)acetamido]-[4A,7K,9E,11E,17V,18Q,22V,28Y,30W,31L]hPYY (4-36)] (Isovaleryl-APEK([AEEA-AEEA-γGlu-C18 diacid])PEEEASPEEVQRYYVSLRHYYNWLTRQRY-NH2) | 3.35 nM |

Compounds with a lower Ki, results first:

| Ki | SMILES |
| --- | --- |
| 1.65 nM | CC(C)CC(=O)N[C@@H](C)C(=O)N1CCC[C@H]1C(=O)N[C@@H](CCC(=O)O)C(=O)N[C@@H](CCCCNC(=O)COCCOCCNC(=O)COCCOCCNC(=O)CC[C@H](NC(=O)CCCCCCCCCCCCCCCCC(=O)O)C(=O)O)C(=O)N1CCC[C@H]1C(=O)N[C@@H](CCC(=O)O)C(=O)N[C@@H](CCC(=O)O)C(=O)N[C@@H](CC(=O)O)C(=O)N[C@@H](C)C(=O)N[C@@H](C)C(=O)N1CCC[C@H]1C(=O)N[C@@H](C)C(=O)N[C@@H](CCC(=O)O)C(=O)N[C@@H](CC(C)C)C(=O)N[C@@H](CCC(N)=O)C(=O)N[C@@H](CCCNC(=N)N)C(=O)N[C@@H](Cc1ccc(O)cc1)C(=O)N[C@@H](Cc1ccc(O)cc1)C(=O)N[C@H](C(=O)N[C@@H](CO)C(=O)N[C@@H](CC(C)C)C(=O)N[C@@H](CCCNC(=N)N)C(=O)N[C@@H](Cc1c[nH]cn1)C(=O)N[C@@H](Cc1ccc(O)cc1)C(=O)N[C@@H](Cc1ccc(O)cc1)C(=O)N[C@@H](CC(N)=O)C(=O)N[C@@H](Cc1c[nH]c2ccccc12)C(=O)N[C@@H](CC(C)C)C(=O)N[C@H](C(=O)N[C@@H](CCCNC(=N)N)C(=O)N[C@@H](CCC(N)=O)C(=O)N[C@@H](CCCNC(=N)N)C(=O)N[C@@H](Cc1ccc(O)cc1)C(N)=O)[C@@H](C)O)C(C)C [Compound 192, N{alpha-4}-(3-methylbutanoyl)-N{epsilon-7}-[2-(2-{2-[2-(2-{2-[(4S)-4-carboxy-4-(17-carboxyheptadecanamido)butanamido]ethoxy}ethoxy)acetamido]ethoxy}ethoxy)acetamido]-[4A,7K,9E,13A,15A,18Q,22V,28Y,30W,31L]hPYY (4-36)] |
| 0.98 nM | CC(C)CC(=O)N[C@@H](C)C(=O)N1CCC[C@H]1C(=O)N[C@@H](C)C(=O)N[C@@H](CCCCNC(=O)COCCOCCNC(=O)COCCOCCNC(=O)CC[C@H](NC(=O)CCCCCCCCCCCCCCCCC(=O)O)C(=O)O)C(=O)N1CCC[C@H]1C(=O)N1CCC[C@H]1C(=O)N[C@@H](CCC(=O)O)C(=O)N[C@@H](CC(=O)O)C(=O)N[C@@H](C)C(=O)N[C@@H](CCC(=O)O)C(=O)N1CCC[C@H]1C(=O)N[C@@H](CCC(=O)O)C(=O)N[C@@H](CCC(=O)O)C(=O)N[C@@H](CC(C)C)C(=O)N[C@@H](CCC(N)=O)C(=O)N[C@@H](CCCNC(=N)N)C(=O)N[C@@H](Cc1ccc(O)cc1)C(=O)N[C@@H](Cc1ccc(O)cc1)C(=O)N[C@H](C(=O)N[C@@H](CO)C(=O)N[C@@H](CC(C)C)C(=O)N[C@@H](CCCNC(=N)N)C(=O)N[C@@H](Cc1c[nH]cn1)C(=O)N[C@@H](Cc1ccc(O)cc1)C(=O)N[C@@H](Cc1ccc(O)cc1)C(=O)N[C@@H](CC(N)=O)C(=O)N[C@@H](Cc1c[nH]c2ccccc12)C(=O)N[C@@H](CC(C)C)C(=O)N[C@H](C(=O)N[C@@H](CCCNC(=N)N)C(=O)N[C@@H](CCC(N)=O)C(=O)N[C@@H](CCCNC(=N)N)C(=O)N[C@@H](Cc1ccc(O)cc1)C(N)=O)[C@@H](C)O)C(C)C [Compound 196, N{alpha-4}-(3-methylbutanoyl)-N{epsilon-7}-[2-(2-{2-[2-(2-{2-[(4S)-4-carboxy-4-(17-carboxyheptadecanamido)butanamido]ethoxy}ethoxy)acetamido]ethoxy}ethoxy)acetamido]-[4A,6A,7K,9P,13E,18Q,22V,28Y,30W,31L]hPYY (4-36)] |
| 0.87 nM | CC(C)CC(=O)N[C@@H](C)C(=O)N1CCC[C@H]1C(=O)N[C@@H](C)C(=O)N[C@@H](CCCCNC(=O)COCCOCCNC(=O)COCCOCCNC(=O)CC[C@H](NC(=O)CCCCCCCCCCCCCCCCC(=O)O)C(=O)O)C(=O)N1CCC[C@H]1C(=O)N[C@@H](CCC(=O)O)C(=O)N[C@@H](C)C(=O)N[C@@H](CC(=O)O)C(=O)N[C@@H](C)C(=O)N[C@@H](CO)C(=O)N1CCC[C@H]1C(=O)N[C@@H](CCC(=O)O)C(=O)N[C@@H](CCC(=O)O)C(=O)N[C@@H](CC(C)C)C(=O)N[C@@H](CCC(N)=O)C(=O)N[C@@H](CCCNC(=N)N)C(=O)N[C@@H](Cc1ccc(O)cc1)C(=O)N[C@@H](Cc1ccc(O)cc1)C(=O)N[C@H](C(=O)N[C@@H](CCC(=O)O)C(=O)N[C@@H](CC(C)C)C(=O)N[C@@H](CCCNC(=N)N)C(=O)N[C@@H](Cc1c[nH]cn1)C(=O)N[C@@H](Cc1ccc(O)cc1)C(=O)N[C@@H](Cc1ccc(O)cc1)C(=O)N[C@@H](CC(N)=O)C(=O)N[C@@H](Cc1c[nH]c2ccccc12)C(=O)N[C@@H](CC(C)C)C(=O)N[C@H](C(=O)N[C@@H](CCCNC(=N)N)C(=O)N[C@@H](CCC(N)=O)C(=O)N[C@@H](CCCNC(=N)N)C(=O)N[C@@H](Cc1ccc(O)cc1)C(N)=O)[C@@H](C)O)C(C)C [Compound 197, N{alpha-4}-(3-methylbutanoyl)-N{epsilon-7}-[2-(2-{2-[2-(2-{2-[(4S)-4-carboxy-4-(17-carboxyheptadecanamido)butanamido]ethoxy}ethoxy)acetamido]ethoxy}ethoxy)acetamido]-[4A,6A,7K,9E,10A,18Q,22V,23E,28Y,30W,31L]hPYY (4-36)] |
